# Test results reported in ChEMBL document CHEMBL5126660, “Sesquiterpenoids from Seriphidium transiliense and Their Melanogenic Activity” (2022).
# The source made the active and inactive calls. The rule behind the calls is not given here.
# Tests used:
# B16 [1] = assay: Induction of melanogenesis in mouse B16 cells assessed as increase in intracellular melanin content at 50 uM incubated for 49 hrs by NaOH lysis based microplate reader assay; type: functional
# B16 [2] = assay: Induction of melanogenesis in mouse B16 cells assessed as increase in intracellular tyrosinase activity at 50 uM incubated for 48 hrs by L-DOPA oxidation method; type: functional, cell-based
# B16 [3] = assay: Induction of melanogenesis in mouse B16 cells assessed as increase in intracellular melanin content at 1 to 50 uM incubated for 49 hrs by NaOH lysis based microplate reader assay; type: functional, cell-based; details: dose 1-50 µM, DDE = dose-dependent effect
# B16 [4] = assay: Induction of melanogenesis in mouse B16 cells assessed as upregulation of MITF protein expression at 50 uM incubated for 48 hrs by Western blot analysis; type: functional, cell-based
# B16 [5] = assay: Induction of melanogenesis in mouse B16 cells assessed as upregulation of TYR protein expression at 50 uM incubated for 48 hrs by Western blot analysis; type: functional, cell-based
# B16 [6] = assay: Induction of melanogenesis in mouse B16 cells assessed as upregulation of TRP-1 protein expression at 50 uM incubated for 48 hrs by Western blot analysis; type: functional, cell-based
# B16 [7] = assay: Induction of melanogenesis in mouse B16 cells assessed as upregulation of TRP-2 protein expression at 50 uM incubated for 48 hrs by Western blot analysis; type: functional, cell-based
# B16 [8] = assay: Induction of melanogenesis in mouse B16 cells assessed as upregulation of MITF mRNA expression at 50 uM by RT-PCR analysis; type: functional, cell-based
# B16 [9] = assay: Induction of melanogenesis in mouse B16 cells assessed as upregulation of TYR mRNA expression at 50 uM by RT-PCR analysis; type: functional, cell-based
# B16 [10] = assay: Induction of melanogenesis in mouse B16 cells assessed as upregulation of TRP-1 mRNA expression at 50 uM by RT-PCR analysis; type: functional, cell-based
# B16 [11] = assay: Induction of melanogenesis in mouse B16 cells assessed as upregulation of TRP-2 mRNA expression at 50 uM by RT-PCR analysis; type: functional, cell-based
# HaCaT [12] = assay: Inhibition of JAK/STAT signaling pathway in human HaCaT cells assessed as downregulation of IFN-gamma induced CXCL10 protein level at 1 to 50 uM incubated for 24 hrs by ELISA; type: cell-based; details: dose 1-50 µM, DDE = dose-dependent effect
# HaCaT [13] = assay: Inhibition of JAK/STAT signaling pathway in human HaCaT cells assessed as downregulation of IFN-gamma induced CXCL10 mRNA expression at 1 to 50 uM by RT-PCR analysis; type: cell-based; details: dose 1-50 µM, DDE = dose-dependent effect
# HaCaT [14] = assay: Inhibition of JAK/STAT signaling pathway in human HaCaT cells assessed as downregulation of IFN-gamma induced JAK1 protein expression at 1 to 50 uM incubated for 48 hrs by Western blot analysis; type: cell-based; details: dose 1-50 µM
# HaCaT [15] = assay: Inhibition of JAK/STAT signaling pathway in human HaCaT cells assessed as downregulation of IFN-gamma induced JAK2 protein expression at 50 uM incubated for 48 hrs by Western blot analysis; type: cell-based
# HaCaT [16] = assay: Inhibition of JAK/STAT signaling pathway in human HaCaT cells assessed as downregulation of IFN-gamma induced p-STAT protein expression at 10 to 50 uM incubated for 48 hrs by Western blot analysis; type: cell-based; details: dose 10-50 µM
smiles,measurement,setting,value
C=C1CC[C@@H](O)[C@]2(C)CC[C@@H]([C@@H](C)C(=O)OC)[C@H](O)[C@@]12O,Activity,B16 [1],Active
C=C1CC[C@H](O)[C@]2(C)CC[C@H]3[C@@H](C)C(=O)O[C@@H]3[C@@]12O,Activity,B16 [1],Active
C=C1CC[C@@H](O)[C@]2(C)C[C@H](OC(C)=O)[C@H]3[C@H](C)C(=O)O[C@@H]3[C@@]12O,Activity,B16 [1],Active
COc1c2occc2cc2ccc(=O)oc12 [METHOXSALEN],Activity,B16 [1],138%
C=C1CC[C@@H](O)[C@]2(C)CC[C@@H]([C@@H](C)C(=O)OC)[C@H](O)[C@]12O,Activity,B16 [1],153%
same,Activity,B16 [2],Active
same,Activity,B16 [3],Dde
same,Activity,B16 [4],Active
same,Activity,B16 [5],Active
same,Activity,B16 [6],Active
same,Activity,B16 [7],Active
same,Activity,B16 [8],Active
same,Activity,B16 [9],Active
same,Activity,B16 [10],Active
same,Activity,B16 [11],Active
same,inhibition,HaCaT [12],Dde
same,inhibition,HaCaT [13],Dde
same,inhibition,HaCaT [14],Active
same,inhibition,HaCaT [15],Active
same,inhibition,HaCaT [16],Active
